Usually EC50 stands for the concentration that produces a half-maximal response.

For one experiment, the system named is MAP4K2. The arrangement: method as in Klaeger et al. (2017). Particulars: MAP4K2, 4 cell line mix lysate, Kinobeads y, ref Klaeger et al. (2017); cited from earlier work.
Another experiment concerns PRKX. The arrangement: method as in Klaeger et al. (2017). Particulars: lysate 4 cell line mix (Colo205, K-562, MV-4-11, and SK-N-BE(2)), Kinobeads y, ref Klaeger et al. (2017); cited from earlier work.
A further experiment relates to CAMKK2. The arrangement: method as in Klaeger et al. (2017). To be noted: lysate 4 cell line mix (Colo205, K-562, MV-4-11, and SK-N-BE(2)), Kinobeads y, ref Klaeger et al. (2017); cited from earlier work.
The test system of a further experiment is PRKAG1. The arrangement: method as in Klaeger et al. (2017). To be noted: lysate 4 cell line mix (Colo205, K-562, MV-4-11, and SK-N-BE(2)), Kinobeads y, ref Klaeger et al. (2017); cited from earlier work.
A further experiment relates to ABL2. On the set-up: method as in Reinecke et al. (2023). Particulars: ABL2, 5 cell line mix lysate, Kinobeads ε, ref Reinecke et al. (2023), cited from earlier work.
The subject of another experiment is JAK2. On the set-up: method as in Reinecke et al. (2023). Particulars: JAK2, 5 cell line mix lysate, Kinobeads ε, ref Reinecke et al. (2023), cited from earlier work.
In experiment [1] the target is CLK1 ; P49759-3;P49759;P49759-2 (Homo sapiens, UniProt P49759). The experiment is described as follows: biochemical. On the set-up: species or system AsPC-1; Kinobeads competition pulldown in AsPC-1 lysate with LC-MS/MS label-free quantification; apparent Kd. Here is the method: (§1) This was followed by incubation with Kinobeads ε (17.5 µl of settled beads) for 30 min at 4 °C to enrich kinases. […] Enriched proteins were reduced with 50 mM DTT in 8 M urea, 40 mM Tris-HCl, pH 7.4 for 30 min at room temperature, and alkylated with 55 mM chloroacetamide. After reducing the urea concentration to 1–2 M, proteins were digested with trypsin at 37 °C for 16 h. Subsequently, eluted peptides were desalted using SepPak tC18 µElution plates (Waters), freeze-dried by vacuum centrifugation, and stored at −20 °C. Proteins were filtered by potential contaminants, reversed hits and proteins identified only by site. Residual binding of proteins was calculated from LFQ intensities as the ratio between drug doses and vehicle. […] Only kinases quantified with at least 4 unique peptides in the vehicle experiment were considered. Potential targets were further curated through manual inspection of dose-dependent reduction in MS/MS and unique peptide counts.

Experiment [2] has as its target CDC42BPA ; Q5VT25-5;Q5VT25-4;Q5VT25;Q5VT25-2;Q5VT25-6;Q5VT25-3 (Homo sapiens, UniProt Q5VT25). The experiment is described as follows: biochemical. On the set-up: species or system AsPC-1; Kinobeads competition pulldown in AsPC-1 lysate with LC-MS/MS label-free quantification; apparent Kd. Here is the method:
as §1

For experiment [3], the target named is ADCK1 ; Q86TW2;Q86TW2-2;Q86TW2-3 (Homo sapiens, UniProt Q86TW2). The experiment is described as follows: biochemical. The arrangement: species or system AsPC-1; Kinobeads competition pulldown in AsPC-1 lysate with LC-MS/MS label-free quantification; apparent Kd. How it is done:
as §1

For a further experiment, the target named is CLK2 ; P49760-3;P49760 (Homo sapiens, UniProt P49760). The experiment is described as follows: biochemical. On the set-up: species or system AsPC-1; Kinobeads competition pulldown in AsPC-1 lysate with LC-MS/MS label-free quantification; apparent Kd. How it is done: as §1
A further experiment concerns the target FN3KRP ; Q9HA64 (Homo sapiens, UniProt Q9HA64). The experiment is described as follows: biochemical. On the set-up: species or system AsPC-1; Kinobeads competition pulldown in AsPC-1 lysate with LC-MS/MS label-free quantification; apparent Kd. How it is done:
as §1

Another experiment deals with AXL ; P30530-2;P30530 (Homo sapiens, UniProt P30530). The experiment is described as follows: biochemical. The arrangement: species or system AsPC-1; Kinobeads competition pulldown in AsPC-1 lysate with LC-MS/MS label-free quantification; apparent Kd. How it is done: as §1
Experiment [4] concerns the target CDK10 ; Q15131;Q15131-5;Q15131-2;Q15131-6;Q15131-4;Q15131-3;Q15131-7 (Homo sapiens, UniProt Q15131). The experiment is described as follows: biochemical. The arrangement: species or system AsPC-1; Kinobeads competition pulldown in AsPC-1 lysate with LC-MS/MS label-free quantification; apparent Kd. Here is the method: as §1
A further experiment concerns the target CDC42BPG ; Q6DT37 (Homo sapiens, UniProt Q6DT37). Description: biochemical. The arrangement: species or system AsPC-1; Kinobeads competition pulldown in AsPC-1 lysate with LC-MS/MS label-free quantification; apparent Kd. How it is done: as §1
The next experiment addresses GSK3B ; P49841-2;P49841 (Homo sapiens, UniProt P49841). The experiment is described as follows: biochemical. The arrangement: species or system AsPC-1; Kinobeads competition pulldown in AsPC-1 lysate with LC-MS/MS label-free quantification; apparent Kd. How it is done: as §1
The target in the next experiment is STK3 ; Q13188;Q13188-2 (Homo sapiens, UniProt Q13188). The experiment is described as follows: biochemical. On the set-up: species or system AsPC-1; Kinobeads competition pulldown in AsPC-1 lysate with LC-MS/MS label-free quantification; apparent Kd. How it is done:
as §1

Another experiment has as its target PIK3C3 ; Q8NEB9 (Homo sapiens, UniProt Q8NEB9). Description: biochemical. On the set-up: species or system AsPC-1; Kinobeads competition pulldown in AsPC-1 lysate with LC-MS/MS label-free quantification; apparent Kd. How it is done:
as §1

CDC42BPG ; Q6DT37, sequence (Q6DT37 whole entry): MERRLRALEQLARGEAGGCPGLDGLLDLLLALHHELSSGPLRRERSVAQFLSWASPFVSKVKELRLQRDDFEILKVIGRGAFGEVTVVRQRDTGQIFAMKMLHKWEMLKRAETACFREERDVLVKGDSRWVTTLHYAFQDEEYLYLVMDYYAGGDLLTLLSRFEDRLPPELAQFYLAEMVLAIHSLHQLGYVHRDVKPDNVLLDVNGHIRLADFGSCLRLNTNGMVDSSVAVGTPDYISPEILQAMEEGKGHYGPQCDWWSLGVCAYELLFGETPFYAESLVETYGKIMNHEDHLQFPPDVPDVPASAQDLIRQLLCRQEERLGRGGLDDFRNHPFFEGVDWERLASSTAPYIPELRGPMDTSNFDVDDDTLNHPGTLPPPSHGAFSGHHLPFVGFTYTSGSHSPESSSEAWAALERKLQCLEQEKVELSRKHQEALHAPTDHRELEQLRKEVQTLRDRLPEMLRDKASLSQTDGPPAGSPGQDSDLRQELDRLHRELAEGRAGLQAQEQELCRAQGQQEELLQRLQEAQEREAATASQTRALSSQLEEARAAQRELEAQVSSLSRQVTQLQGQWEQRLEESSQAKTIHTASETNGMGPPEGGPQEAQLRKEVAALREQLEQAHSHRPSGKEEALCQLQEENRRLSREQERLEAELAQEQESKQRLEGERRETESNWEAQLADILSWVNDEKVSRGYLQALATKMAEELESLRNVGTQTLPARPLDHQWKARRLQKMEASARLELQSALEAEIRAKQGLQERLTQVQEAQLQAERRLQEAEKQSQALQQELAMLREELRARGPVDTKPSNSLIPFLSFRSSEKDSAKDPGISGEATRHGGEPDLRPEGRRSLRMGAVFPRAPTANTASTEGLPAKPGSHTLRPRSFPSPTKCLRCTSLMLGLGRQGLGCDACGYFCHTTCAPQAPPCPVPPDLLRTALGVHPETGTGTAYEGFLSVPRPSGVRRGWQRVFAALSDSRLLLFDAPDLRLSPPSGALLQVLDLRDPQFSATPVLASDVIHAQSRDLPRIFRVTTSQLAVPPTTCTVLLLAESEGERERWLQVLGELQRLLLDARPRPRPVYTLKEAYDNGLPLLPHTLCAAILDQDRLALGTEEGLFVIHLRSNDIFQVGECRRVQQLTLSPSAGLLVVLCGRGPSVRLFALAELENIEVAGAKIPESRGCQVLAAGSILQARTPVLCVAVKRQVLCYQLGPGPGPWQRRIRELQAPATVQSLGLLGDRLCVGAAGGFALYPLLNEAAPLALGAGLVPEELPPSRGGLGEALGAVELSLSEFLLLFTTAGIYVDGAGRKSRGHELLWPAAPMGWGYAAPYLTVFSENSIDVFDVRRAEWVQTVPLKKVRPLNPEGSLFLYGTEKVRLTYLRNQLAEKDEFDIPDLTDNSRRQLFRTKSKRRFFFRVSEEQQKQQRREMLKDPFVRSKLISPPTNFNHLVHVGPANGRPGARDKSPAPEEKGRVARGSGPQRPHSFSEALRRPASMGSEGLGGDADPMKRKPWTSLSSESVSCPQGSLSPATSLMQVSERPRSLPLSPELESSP
STK3 ; Q13188;Q13188-2, sequence (Q13188 whole entry): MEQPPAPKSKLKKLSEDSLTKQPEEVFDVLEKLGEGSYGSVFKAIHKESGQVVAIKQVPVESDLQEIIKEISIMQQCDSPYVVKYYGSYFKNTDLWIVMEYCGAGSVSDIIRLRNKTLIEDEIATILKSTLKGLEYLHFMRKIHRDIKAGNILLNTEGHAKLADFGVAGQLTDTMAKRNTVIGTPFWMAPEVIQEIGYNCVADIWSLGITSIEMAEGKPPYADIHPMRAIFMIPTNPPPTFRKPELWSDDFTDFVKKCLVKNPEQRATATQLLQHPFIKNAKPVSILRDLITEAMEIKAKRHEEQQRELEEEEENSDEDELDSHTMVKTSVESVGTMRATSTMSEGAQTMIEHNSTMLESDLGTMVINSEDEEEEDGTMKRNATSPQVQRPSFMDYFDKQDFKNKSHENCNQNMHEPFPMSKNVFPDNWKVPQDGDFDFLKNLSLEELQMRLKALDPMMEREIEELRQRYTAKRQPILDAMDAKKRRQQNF
FN3KRP ; Q9HA64, sequence (Q9HA64 whole entry): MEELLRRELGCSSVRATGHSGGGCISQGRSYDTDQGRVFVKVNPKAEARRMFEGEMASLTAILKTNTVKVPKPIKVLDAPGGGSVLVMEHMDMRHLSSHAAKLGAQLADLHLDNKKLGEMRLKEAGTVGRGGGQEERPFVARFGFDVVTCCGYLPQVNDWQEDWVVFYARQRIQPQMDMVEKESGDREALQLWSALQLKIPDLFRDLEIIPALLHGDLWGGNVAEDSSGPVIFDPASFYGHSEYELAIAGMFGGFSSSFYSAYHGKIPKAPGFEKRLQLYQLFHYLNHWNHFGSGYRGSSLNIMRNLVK
CLK2 ; P49760-3;P49760, sequence (P49760 whole entry): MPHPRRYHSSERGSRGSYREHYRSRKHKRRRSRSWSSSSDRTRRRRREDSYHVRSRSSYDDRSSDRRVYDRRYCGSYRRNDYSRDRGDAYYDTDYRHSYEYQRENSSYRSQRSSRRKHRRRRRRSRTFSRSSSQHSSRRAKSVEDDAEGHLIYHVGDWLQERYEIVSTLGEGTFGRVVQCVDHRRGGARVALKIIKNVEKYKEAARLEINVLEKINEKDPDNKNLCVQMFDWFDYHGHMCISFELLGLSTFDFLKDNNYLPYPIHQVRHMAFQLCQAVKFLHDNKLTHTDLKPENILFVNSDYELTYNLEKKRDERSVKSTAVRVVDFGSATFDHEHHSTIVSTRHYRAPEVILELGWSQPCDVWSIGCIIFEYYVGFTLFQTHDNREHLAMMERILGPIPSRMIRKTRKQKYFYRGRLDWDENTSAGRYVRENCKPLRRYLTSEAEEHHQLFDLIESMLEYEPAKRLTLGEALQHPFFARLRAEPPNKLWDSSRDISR
AXL ; P30530-2;P30530, sequence (P30530 whole entry): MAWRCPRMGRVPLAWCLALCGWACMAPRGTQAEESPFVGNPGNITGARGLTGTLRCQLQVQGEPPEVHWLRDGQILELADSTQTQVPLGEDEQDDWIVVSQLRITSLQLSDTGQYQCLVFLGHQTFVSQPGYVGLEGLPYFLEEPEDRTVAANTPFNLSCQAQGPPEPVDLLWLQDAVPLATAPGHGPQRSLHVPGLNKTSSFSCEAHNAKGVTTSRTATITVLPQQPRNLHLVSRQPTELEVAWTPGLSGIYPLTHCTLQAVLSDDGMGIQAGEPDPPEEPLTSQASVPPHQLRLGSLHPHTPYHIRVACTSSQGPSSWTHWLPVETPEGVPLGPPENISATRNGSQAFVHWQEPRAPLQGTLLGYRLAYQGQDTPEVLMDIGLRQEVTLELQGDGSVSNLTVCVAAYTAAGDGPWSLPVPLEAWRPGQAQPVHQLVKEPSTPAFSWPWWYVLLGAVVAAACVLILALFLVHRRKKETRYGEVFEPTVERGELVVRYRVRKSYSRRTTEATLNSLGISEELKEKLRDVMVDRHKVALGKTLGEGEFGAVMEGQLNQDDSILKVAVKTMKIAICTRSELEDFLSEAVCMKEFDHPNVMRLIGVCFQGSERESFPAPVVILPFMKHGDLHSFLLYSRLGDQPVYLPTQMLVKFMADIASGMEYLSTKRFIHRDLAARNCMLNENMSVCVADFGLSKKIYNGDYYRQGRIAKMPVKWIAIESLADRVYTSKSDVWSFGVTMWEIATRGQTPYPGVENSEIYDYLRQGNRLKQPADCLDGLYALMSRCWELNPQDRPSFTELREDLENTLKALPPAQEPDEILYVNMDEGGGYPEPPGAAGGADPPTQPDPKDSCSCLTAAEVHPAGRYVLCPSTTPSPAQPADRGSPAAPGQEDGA
ADCK1 ; Q86TW2;Q86TW2-2;Q86TW2-3, sequence (Q86TW2 whole entry): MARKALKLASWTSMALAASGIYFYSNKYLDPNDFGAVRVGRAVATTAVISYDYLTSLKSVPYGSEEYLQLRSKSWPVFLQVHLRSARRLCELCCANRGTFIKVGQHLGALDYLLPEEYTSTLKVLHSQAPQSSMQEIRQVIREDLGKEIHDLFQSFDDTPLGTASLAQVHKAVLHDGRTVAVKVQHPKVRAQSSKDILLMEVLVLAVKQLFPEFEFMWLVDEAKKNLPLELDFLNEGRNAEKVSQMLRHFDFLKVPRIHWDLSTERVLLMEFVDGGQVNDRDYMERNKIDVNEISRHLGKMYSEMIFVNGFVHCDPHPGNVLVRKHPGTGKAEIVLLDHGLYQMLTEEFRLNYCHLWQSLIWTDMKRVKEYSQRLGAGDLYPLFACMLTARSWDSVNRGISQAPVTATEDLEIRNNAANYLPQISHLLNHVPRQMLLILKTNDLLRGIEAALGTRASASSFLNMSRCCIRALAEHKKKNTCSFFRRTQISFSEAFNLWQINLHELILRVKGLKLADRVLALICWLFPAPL
CLK1 ; P49759-3;P49759;P49759-2, sequence (P49759 whole entry): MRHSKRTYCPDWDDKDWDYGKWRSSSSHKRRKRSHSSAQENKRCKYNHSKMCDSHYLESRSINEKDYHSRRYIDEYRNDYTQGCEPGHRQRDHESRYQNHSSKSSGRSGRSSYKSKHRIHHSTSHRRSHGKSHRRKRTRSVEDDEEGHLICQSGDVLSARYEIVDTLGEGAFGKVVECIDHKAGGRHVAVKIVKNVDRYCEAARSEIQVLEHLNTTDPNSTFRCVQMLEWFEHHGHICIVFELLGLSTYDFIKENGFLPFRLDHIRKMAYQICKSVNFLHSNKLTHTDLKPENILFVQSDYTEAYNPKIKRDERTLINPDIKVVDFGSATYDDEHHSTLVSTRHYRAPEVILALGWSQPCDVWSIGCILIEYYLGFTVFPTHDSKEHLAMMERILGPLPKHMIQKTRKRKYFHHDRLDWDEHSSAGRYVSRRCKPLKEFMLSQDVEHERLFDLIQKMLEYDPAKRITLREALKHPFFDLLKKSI

Take `C[C@]12O[C@H](C[C@]1(O)CO)n1c3ccccc3c3c4c(c5c6ccccc6n2c5c31)CNC4=O` [Lestaurtinib]: the EC50 with MAP4K2 was […]; in the experiment on PRKX it was […]; in the experiment on CAMKK2 it was […]; in the experiment on PRKAG1, 1400 nM.
On to `COc1cc(N2CCC(N3CCN(C)CC3)CC2)ccc1Nc1ncc(Cl)c(Nc2ccccc2P(C)(C)=O)n1` [Brigatinib], for which the values for the EC50 in the experiment with ABL2 and in the experiment with JAK2 were 3240 nM and 4340 nM, respectively. Besides, the pKDapp on ABL2 was 5.97; on JAK2, 5.46. Further, the Kd at ABL2 (read-out: KDapp) is 1070 nM; at JAK2 (read-out: KDapp), 3470 nM.
With `Nc1nn2cc(F)cnc2c1C(=O)Nc1cncc(F)c1N1CCC(C(=O)N2CCN(C3COC3)CC2)CC1` [Gartisertib], the Kd was 70.9 nM in [1]; 15.4 nM in [2]; 23.2 nM in experiment [3]; 303 nM at CLK2 ; P49760-3;P49760; 358 nM at FN3KRP ; Q9HA64; 473 nM on AXL ; P30530-2;P30530. The values for the Kd (in experiment [4]; on CDC42BPG ; Q6DT37) were 153 nM and 16.9 nM, respectively.
As for `CNCc1ccc(-c2cc(-c3nc(-c4ccc(S(=O)(=O)C(C)C)cc4)cnc3N)on2)cc1` [Berzosertib], the Kd at GSK3B ; P49841-2;P49841 came out at 33.2 nM; at STK3 ; Q13188;Q13188-2, 70.2 nM; at PIK3C3 ; Q8NEB9, 9.2 nM.

These data come from paper PMC11876601 (Molecular Systems Biology, 2025).
